This experiment addresses T1, hVR1 (Homo sapiens, UniProt Q8NER1).
T1 construct: expressed in transfected cells; host or cells: HEK293
Nature of the experiment: Human VR1 (hVR1) Functional Assay (FLIPR intracellular calcium, capsaicin challenge). Type of experiment: cell-based. Conditions: capsaicin 0.030 μM, HEK293 cells expressing hVR1; for inhibition at 1 µM: test concentration 1 μM. On the technique in general: Calcium assays in cells follow changes in intracellular calcium, usually with a dye or a luminescent sensor.

T1 sequence (Q8NER1 whole entry): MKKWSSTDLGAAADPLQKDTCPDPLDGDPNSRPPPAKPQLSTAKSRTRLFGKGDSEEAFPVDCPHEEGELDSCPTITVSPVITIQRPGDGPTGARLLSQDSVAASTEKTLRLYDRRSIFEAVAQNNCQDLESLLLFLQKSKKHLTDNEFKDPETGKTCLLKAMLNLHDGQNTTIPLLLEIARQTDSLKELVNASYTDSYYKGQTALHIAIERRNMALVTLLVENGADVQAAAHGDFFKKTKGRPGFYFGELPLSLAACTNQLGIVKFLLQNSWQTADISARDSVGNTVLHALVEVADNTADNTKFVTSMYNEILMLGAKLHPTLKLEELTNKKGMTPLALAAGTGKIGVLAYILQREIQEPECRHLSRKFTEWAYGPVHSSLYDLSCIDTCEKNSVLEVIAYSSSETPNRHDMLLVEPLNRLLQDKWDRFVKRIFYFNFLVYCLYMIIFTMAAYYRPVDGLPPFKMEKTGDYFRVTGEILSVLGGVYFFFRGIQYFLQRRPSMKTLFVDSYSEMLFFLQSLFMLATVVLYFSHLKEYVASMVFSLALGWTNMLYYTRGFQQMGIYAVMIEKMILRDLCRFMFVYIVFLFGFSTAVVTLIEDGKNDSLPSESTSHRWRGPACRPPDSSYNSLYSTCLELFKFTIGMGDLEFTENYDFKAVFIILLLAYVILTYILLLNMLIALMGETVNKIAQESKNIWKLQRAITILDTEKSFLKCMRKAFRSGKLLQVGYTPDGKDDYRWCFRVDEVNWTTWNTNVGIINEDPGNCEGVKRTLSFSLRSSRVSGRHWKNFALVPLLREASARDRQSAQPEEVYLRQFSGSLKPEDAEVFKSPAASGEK

With `NS(=O)(=O)c1cc(C(F)(F)F)ccc1-c1ccc2[nH]c(/C=C/c3ccc(C(F)(F)F)cc3)nc2c1` [Cpd 446, (E)-5-trifluoromethyl-2-{2-[2-(4-trifluoromethyl-phenyl)-vinyl]-1H-benzimidazol-5-yl}-benzenesulfonamide], the concentration for half-maximal inhibition (IC50) (as a rule, the concentration that inhibits the measured activity by half) amounted to 76 nM and the inhibition (commonly the relative decrease from the control value, in per cent) at 1 µM was found to be 97%.

Regarding `CC(=O)Nc1ccccc1-c1ccc2[nH]c(/C=C/c3ccc(SC(F)(F)F)cc3)nc2c1` [Cpd 37, (E)-N-(2-{2-[2-(4-trifluoromethylsulfanyl-phenyl)-vinyl]-1H-benzimidazol-5-yl}-phenyl)-acetamide], the inhibition at 1 µM was determined as 18%.

For `CNS(=O)(=O)c1ccccc1-c1ccc2[nH]c(/C=C/c3ccc(Cl)c(Cl)c3)nc2c1` [Cpd 316, (E)-2-{2-[2-(3,4-dichloro-phenyl)-vinyl]-1H-benzimidazol-5-yl}-N-methyl-benzenesulfonamide], the half-maximal inhibitory concentration (IC50) was determined as 12 nM and the inhibition at 1 µM is 101%.

Regarding `CNS(=O)(=O)c1ccccc1-c1ccc2[nH]c(/C=C/c3ccc(F)cc3)nc2c1` [Cpd 315, (E)-2-{2-[2-(4-fluoro-phenyl)-vinyl]-1H-benzimidazol-5-yl}-N-methyl-benzenesulfonamide], the IC50 stood at 11 nM and the inhibition at 1 µM was 100%.

Consider `CS(=O)(=O)Nc1ccccc1-c1ccc2[nH]c(/C=C/c3ccc(OCC(F)(F)F)cc3)nc2c1` [Cpd 95, (E)-N-[2-(2-{2-[4-(2,2,2-trifluoro-ethoxy)-phenyl]-vinyl}-1H-benzimidazol-5-yl)-phenyl]-methanesulfonamide], for which the IC50 turned out to be 301 nM and the inhibition at 1 µM is 81%.

Regarding `CC(C)(C)C(=O)Nc1ccccc1-c1ccc2[nH]c(/C=C/c3ccc(C(F)(F)F)cc3)nc2c1` [Cpd 460, (E)-2,2-dimethyl-N-(2-{2-[2-(4-trifluoromethyl-phenyl)-vinyl]-1H-benzimidazol-5-yl}-phenyl)-propionamide], the inhibition at 1 µM turned out to be 21%.

For `NS(=O)(=O)c1ccc(C(F)(F)F)cc1-c1ccc2[nH]c(/C=C/c3ccc(C(F)(F)F)cc3)nc2c1` [Cpd 444, (E)-4-trifluoromethyl-2-{2-[2-(4-trifluoromethyl-phenyl)-vinyl]-1H-benzimidazol-5-yl}-benzenesulfonamide], the half-inhibitory concentration (IC50) was determined as 28 nM and the inhibition at 1 µM was found to be 98%.

`CC(=O)Nc1ccccc1-c1cc2nc(/C=C/c3ccc(C(F)(F)F)cc3)[nH]c2cc1F` [Cpd 64, (E)-N-(2-{6-fluoro-2-[2-(4-trifluoromethyl-phenyl)-vinyl]-1H-benzimidazol-5-yl}-phenyl)-acetamide]: the inhibition at 1 µM stood at 41%.

Regarding `CNS(=O)(=O)c1ccccc1-c1ccc2[nH]c(/C=C/c3cccc(F)c3F)nc2c1` [Cpd 325, (E)-2-{2-[2-(2,3-difluoro-phenyl)-vinyl]-1H-benzimidazol-5-yl}-N-methyl-benzenesulfonamide], the inhibition at 1 µM amounted to 73%.

Regarding `CC(C)(O)c1ccccc1-c1ccc2[nH]c(C#Cc3ccccc3)nc2c1` [Cpd 489, 2-[2-(2-phenylethynyl-1H-benzimidazol-5-yl)-phenyl]-propan-2-ol], the 50% inhibitory concentration (IC50) stood at 2 nM and the inhibition at 1 µM was 96%.

Regarding `NS(=O)(=O)c1ccccc1-c1ccc2[nH]c(CCc3cc(F)ccc3F)nc2c1` [Cpd 395, 2-{2-[2-(2,5-difluoro-phenyl)-ethyl]-1H-benzimidazol-5-yl}-benzenesulfonamide], the IC50 was 15 nM and the inhibition at 1 µM stood at 99%.

In the case of `CS(=O)(=O)c1cc(Cl)ccc1CCc1nc2cc(-c3ccccc3S(N)(=O)=O)ccc2[nH]1` [Cpd 389, 2-{2-[2-(4-chloro-2-methanesulfonyl-phenyl)-ethyl]-1H-benzimidazol-5-yl}-benzenesulfonamide], the inhibition at 1 µM is 23%.

Turning to `CS(=O)(=O)Nc1ccccc1-c1ccc2[nH]c(/C=C/c3ccc4ccccc4c3)nc2c1` [Cpd 415, (E)-N-{2-[2-(2-naphthalen-2-yl-vinyl)-1H-benzimidazol-5-yl]-phenyl}-methanesulfonamide], the IC50 was found to be 150 nM and the inhibition at 1 µM was determined as 95%.

(Values after patent US7951829B2, “Benzimidazole modulators of VR1” (Janssen Pharmaceutica NV, priority 2006, dated 2011).)
